Measured values as given in patent US9932340B2, “Substituted indoles” (AbbVie Inc., priority 2014, dated 2018).

These compounds were tested against SUV420H1 enzyme (Homo sapiens, UniProt Q4FZB7) (assay: TR-FRET SAH SUV420H1 enzyme inhibition assay). Conditions: Histone Peptide H4(8-30)me1 and SAM, overnight at room temp, TR-FRET detection of SAH, read-out: TR-FRET SAH_SUV420H1 IC50.
Sequence of SUV420H1 enzyme (Q4FZB7 whole entry): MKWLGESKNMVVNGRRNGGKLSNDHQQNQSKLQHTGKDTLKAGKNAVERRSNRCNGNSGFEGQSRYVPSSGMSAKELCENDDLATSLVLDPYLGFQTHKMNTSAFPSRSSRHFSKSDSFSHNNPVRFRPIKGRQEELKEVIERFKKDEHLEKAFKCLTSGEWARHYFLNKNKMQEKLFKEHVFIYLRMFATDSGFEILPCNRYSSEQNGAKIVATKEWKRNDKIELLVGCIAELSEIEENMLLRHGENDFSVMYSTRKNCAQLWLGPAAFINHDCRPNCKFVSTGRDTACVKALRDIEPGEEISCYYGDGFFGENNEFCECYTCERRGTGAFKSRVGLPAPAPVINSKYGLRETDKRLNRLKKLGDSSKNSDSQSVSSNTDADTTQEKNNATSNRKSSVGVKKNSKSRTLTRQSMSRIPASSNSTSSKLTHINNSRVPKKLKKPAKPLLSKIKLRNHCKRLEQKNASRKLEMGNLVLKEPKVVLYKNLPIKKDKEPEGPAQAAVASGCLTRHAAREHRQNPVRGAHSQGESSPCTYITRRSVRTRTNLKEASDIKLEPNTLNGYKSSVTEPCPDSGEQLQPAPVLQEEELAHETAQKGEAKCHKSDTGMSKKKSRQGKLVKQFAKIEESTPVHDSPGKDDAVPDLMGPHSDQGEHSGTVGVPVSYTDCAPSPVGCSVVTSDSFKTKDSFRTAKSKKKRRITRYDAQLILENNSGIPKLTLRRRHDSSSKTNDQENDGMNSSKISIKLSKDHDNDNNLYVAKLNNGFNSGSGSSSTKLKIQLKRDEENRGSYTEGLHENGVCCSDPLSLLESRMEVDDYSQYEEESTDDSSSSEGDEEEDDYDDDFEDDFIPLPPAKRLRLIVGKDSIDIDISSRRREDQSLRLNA
Type: biochemical
Procedure, shortened: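 SUV420H1 (90 nM) preincubated 30 min with compound (3-fold dilutions, 50 to 0.00075 μM), then H4(8-30)me1 peptide 5 nM and SAM 4 nM added, overnight at room temp. SAH product detected by TR-FRET with Tb anti-SAH antibody and Oregon Green-SAH in RIPA buffer, 4 h; IC50 from Hill fit, asymptotes fixed 0-100%.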
Compound CCc1noc(C)c1C(=O)NCc1cc2cc(Cl)cc(Cn3cnc4c(N)ncnc43)c2[nH]1 [Example 186, N-({7-[(6-amino-9H-purin-9-yl)methyl]-5-chloro-1H-indol-2-yl}methyl)-3-ethyl-5-methyl-1,2-oxazole-4-carboxamide] has an IC50 of 263 nM.
Cc1nnccc1C(=O)NCc1cc2cc(C3=CCC(F)(F)CC3)cc(Cn3cnc4c(N)ncnc43)c2[nH]1 [Example 201, N-({7-[(6-amino-9H-purin-9-yl)methyl]-5-(4,4-difluorocyclohex-1-en-1-yl)-1H-indol-2-yl}methyl)-3-methylpyridazine-4-carboxamide] gave an IC50 of 58.9 nM.
In the case of CC1CCCC(C(=O)NCc2cc3cc(Cl)cc(Cn4cnc5c(N)ncnc54)c3[nH]2)C1 (centres unmarked) [Example 131, N-({7-[(6-amino-9H-purin-9-yl)methyl]-5-chloro-1H-indol-2-yl}methyl)-3-methylcyclohexanecarboxamide], the IC50 is reported as 3230 nM.
In the case of CC(=O)N1CC=C(c2cc(Cn3cnc4c(N)ncnc43)c3[nH]c(CNC(=O)c4ccc(C#N)cc4C)cc3c2)CC1 [Example 307, N-({5-(1-acetyl-1,2,3,6-tetrahydropyridin-4-yl)-7-[(6-amino-9H-purin-9-yl)methyl]-1H-indol-2-yl}methyl)-4-cyano-2-methylbenzamide], the IC50 is reported as 29.7 nM.
With Cc1cccc(F)c1CNCc1cc2cc(Cl)cc(Cn3cnc4c(N)ncnc43)c2[nH]1 [Example 244, 9-[(5-chloro-2-{[(2-fluoro-6-methylbenzyl)amino]methyl}-1H-indol-7-yl)methyl]-9H-purin-6-amine] the IC50 was 1940 nM.
With Cc1ccc(CC(=O)NCc2cc3cc(Cl)cc(Cn4cnc5c(N)ncnc54)c3[nH]2)cc1 [Example 292, N-({7-[(6-amino-9H-purin-9-yl)methyl]-5-chloro-1H-indol-2-yl}methyl)-2-(4-methylphenyl)acetamide] the IC50 was 32200 nM.
Cc1ncccc1C(=O)NCc1cc2cc(Cl)cc(Cn3cnc4c(N)ncnc43)c2[nH]1 [Example 233, N-({7-[(6-amino-9H-purin-9-yl)methyl]-5-chloro-1H-indol-2-yl}methyl)-2-methylpyridine-3-carboxamide] was tested, and the IC50 was 236 nM.
CC(=O)N1CCC=C(c2cc(Cn3cnc4c(N)ncnc43)c3[nH]c(CNC(=O)c4cc(C)nnc4C)cc3c2)C1 [Example 238] gave an IC50 of 45.7 nM.
NCc1cc2cc(-c3ccc(C(=O)NC4CC4)cc3)cc(Cn3cnc4c(N)ncnc43)c2[nH]1 [Example 50, 4-{2-(aminomethyl)-7-[(6-amino-9H-purin-9-yl)methyl]-1H-indol-5-yl}-N-cyclopropylbenzamide] was tested, and the IC50 was 223 nM.
For N#Cc1ccccc1CNCc1cc2cc(Cl)cc(Cn3cnc4c(N)ncnc43)c2[nH]1 [Example 269, 2-{[({7-[(6-amino-9H-purin-9-yl)methyl]-5-chloro-1H-indol-2-yl}methyl)amino]methyl}benzonitrile], the IC50 was 5600 nM.
Work on Cn1cncc1C(=O)NCc1cc2cc(Cl)cc(Cn3cnc4c(N)ncnc43)c2[nH]1 [Example 153, N-({7-[(6-amino-9H-purin-9-yl)methyl]-5-chloro-1H-indol-2-yl}methyl)-1-methyl-1H-imidazole-5-carboxamide] yielded an IC50 of 4400 nM.
Compound Nc1ncnc2c1ncn2Cc1cc(Cl)cc2cc(CNCc3ccccc3Cl)[nH]c12 [Example 210, 9-[(5-chloro-2-{[(2-chlorobenzyl)amino]methyl}-1H-indol-7-yl)methyl]-9H-purin-6-amine] has an IC50 of 3340 nM.
For N#Cc1ccc(-c2ccc(Cn3cnc4c(N)ncnc43)c3[nH]c(CN)cc23)cc1 [Example 82, 4-{2-(aminomethyl)-7-[(6-amino-9H-purin-9-yl)methyl]-1H-indol-4-yl}benzonitrile], the IC50 was 939 nM.
For Cc1noc(C)c1C(=O)NCc1cc2cc(-c3cccc(N4CCOCC4)c3)cc(Cn3cnc4c(N)ncnc43)c2[nH]1 [Example 179, N-({7-[(6-amino-9H-purin-9-yl)methyl]-5-[3-(morpholin-4-yl)phenyl]-1H-indol-2-yl}methyl)-3,5-dimethyl-1,2-oxazole-4-carboxamide], the IC50 was 365 nM.
